Earlier results as cited in patent US20030008844A1, “Use of sulodexide for the treatment of inflammatory bowel disease” (Keryx Biopharmaceuticals, Inc., priority 2001, published 2003).

How the values were obtained:
[1] = tested on: steroid-dependent chronically active Crohn's disease; conditions: placebo-controlled trial
ulcerative colitis = conditions: placebo-controlled trial
mild to moderate UC = conditions: oral
perianal Crohn's disease = conditions: uncontrolled trials

CN(Cc1cnc2nc(N)nc(N)c2n1)c1ccc(C(=O)N[C@@H](CCC(=O)O)C(=O)O)cc1 [methotrexate, Methotrexate]
rates of clinical remission [1]: substantially improved

CN1CCCC1c1cccnc1 (stereo not shown) [nicotine, Nicotine]
maintaining remission of ulcerative colitis (ulcerative colitis): ineffective

O=C(O)c1cc(/N=N/c2ccc(S(=O)(=O)Nc3ccccn3)cc2)ccc1O [sulfasalazine]
efficacy in treatment of mild to moderate UC (mild to moderate UC): superior to placebo and similar or superior to steroid enemas

Cc1ncc([N+](=O)[O-])n1CCO [metronidazole]
patients showing improvements (perianal Crohn's disease): practically all patients showed improvements
